Results: patent publication US9493486B2, “Diazaspirocycloalkane and azaspirocycloalkane” (Hoffmann-La Roche Inc., priority 2012, dated 2016)

Biological target: ATX (human His-tagged) (Homo sapiens (Human), UniProt Q13822)
Assay: Human ATX enzyme inhibition assay (fluorescence quenching, MR121 substrate)
Assay type: biochemical
Details: 30 nM ATX, 1 μM MR121 substrate, 30° C.
Description: Human ATX Enzyme Inhibition Assay
Assay working solutions were made as follows:

| SMILES | IC50 [nM] |
| --- | --- |
| O=C(CCc1cc(Cl)cc(Cl)c1)N1CC2(CC(NS(=O)(=O)c3ccc4[nH]c(=O)oc4c3)C2)C1 [Example 3.3, 2-oxo-2,3-dihydro-benzooxazole-6-sulfonic acid {2-[3-(3,5-dichloro-phenyl)-propionyl]-2-aza-spiro[3.3]hept-6-yl}-amide] | 59 |
| O=C(OCc1ccc(OC(F)(F)F)c(F)c1)N1CC2(CCN(C(=O)C3CCc4[nH]nnc4C3)CC2)C1 (centres unmarked) [Example 12.33, 3-fluoro-4-(trifluoromethoxy)benzyl 7-(4,5,6,7-tetrahydro-1H-benzo[d][1,2,3]triazole-5-carbonyl)-2,7-diazaspiro[3.5]nonane-2-carboxylate] | 13 |
| O=C(NC1CC2(C1)CN(C(=O)OCc1ccccc1)C2)c1ccc2[nH]nnc2c1 [Example 1.07, 6-[(1H-benzotriazole-5-carbonyl)-amino]-2-aza-spiro[3.3]heptane-2-carboxylic acid benzyl ester] | 4140 |
| O=C(OCc1csc(Cl)c1)N1CCC2(CC1)CN(C(=O)c1ccc3[nH]nnc3c1)C2 [Example 12.12, (5-chlorothiophen-3-yl)methyl 2-(1H-benzo[d][1,2,3]triazole-5-carbonyl)-2,7-diazaspiro[3.5]nonane-7-carboxylate] | 332 |
| O=C(OCc1cc(Cl)cc(Cl)c1)N1CCC2(CCN(C(=O)c3ccc4[nH]nnc4c3)CC2)C1 [Example 1.19, 3,5-dichlorobenzyl 8-(1H-benzo[d][1,2,3]triazole-5-carbonyl)-2,8-diazaspiro[4.5]decane-2-carboxylate] | 39.5 |
| O=C(OCc1cc(Cl)cc(Cl)c1)N1CCC2(CCN(C(=O)c3ccc4[nH]nnc4c3)C2)C1 (centres unmarked) [Example 12.16, 3,5-dichlorobenzyl 7-(1H-benzo[d][1,2,3]triazole-5-carbonyl)-2,7-diazaspiro[4.4]nonane-2-carboxylate] | 457 |
| O=C(CCc1ccc(OC(F)(F)F)cc1)N1CCC2(CC1)CN(C(=O)C1CCc3[nH]nnc3C1)C2 (centres unmarked) [Example 1.28, 1-(2-(4,5,6,7-tetrahydro-1H-benzo[d][1,2,3]triazole-5-carbonyl)-2,7-diazaspiro[3.5]nonan-7-yl)-3-(4-(trifluoromethoxy)phenyl)propan-1-one] | 110 |
| O=C(NC1CC2(C1)CN(C(=O)CCCc1ccccc1)C2)c1ccc2[nH]nnc2c1 [Example 1.08, N-(2-(4-phenylbutanoyl)-2-azaspiro[3.3]heptan-6-yl)-1H-benzo[d][1,2,3]triazole-5-carboxamide] | 3350 |
| O=C(NC1CC2(C1)CN(C(=O)OCc1ccc(F)c(Cl)c1)C2)c1ccc2[nH]nnc2c1 [Example 12.21, 6-[(1H-benzotriazole-5-carbonyl)-amino]-2-aza-spiro[3.3]heptane-2-carboxylic acid 3-chloro-4-fluoro-benzyl ester] | 1250 |
| O=C(NC1CC2(C1)CN(C(=O)OCc1cc(Cl)cc(OC(F)(F)F)c1)C2)c1ccc2[nH]nnc2c1 [Example 12.18, 6-[(1H-benzotriazole-5-carbonyl)-amino]-2-aza-spiro[3.3]heptane-2-carboxylic acid 3-chloro-5-trifluoromethoxy-benzyl ester] | 53.5 |
| O=C(C#Cc1cccc(Cl)c1)N1CCC2(CC1)CN(C(=O)c1ccc3[nH]nnc3c1)C2 [Example 6.10, 1-(2-(1H-benzo[d][1,2,3]triazole-5-carbonyl)-2,7-diazaspiro[3.5]nonan-7-yl)-3-(3-chlorophenyl)prop-2-yn-1-one] | 826 |
| CS(=O)(=O)c1cc(Cl)ccc1COC(=O)N1CCC2(CC1)CN(C(=O)c1ccc3[nH]nnc3c1)C2 [Example 12.27, 4-chloro-2-(methylsulfonyl)benzyl 2-(1H-benzo[d][1,2,3]triazole-5-carbonyl)-2,7-diazaspiro[3.5]nonane-7-carboxylate] | 140 |
| CS(=O)(=O)c1cc(COC(=O)N2CCC3(CC2)CN(S(=O)(=O)c2ccc4[nH]c(=O)oc4c2)C3)cc(C(F)(F)F)c1 [Example 12.45, 3-(methylsulfonyl)-5-(trifluoromethyl)benzyl 2-(2-oxo-2,3-dihydrobenzo[d]oxazol-6-ylsulfonyl)-2,7-diazaspiro[3.5]nonane-7-carboxylate] | 39 |
| CS(=O)(=O)c1cc(Cl)cc(COC(=O)N2CCC3(CC2)CN(C(=O)c2cccc(S(N)(=O)=O)c2)C3)c1 [Example 1.18, 3-chloro-5-(methylsulfonyl)benzyl 2-(3-sulfamoylbenzoyl)-2,7-diazaspiro[3.5]nonane-7-carboxylate] | 625 |
| O=C(c1ccc2[nH]nnc2c1)N1CCC2(CCN(C(=O)c3cc4cc(Cl)ccc4[nH]3)C2)C1 (centres unmarked) [Example 6.6, (7-(1H-benzo[d][1,2,3]triazole-5-carbonyl)-2,7-diazaspiro[4.4]nonan-2-yl)(5-chloro-1H-indol-2-yl)methanone] | 605 |
| O=C(NC1CC2(C1)CN(C(=O)c1ccc3[nH]nnc3c1)C2)OCc1cc(Cl)cc(Cl)c1 [Example 1.12, [2-(1H-benzotriazole-5-carbonyl)-2-aza-spiro[3.3]hept-6-yl]-carbamic acid 3,5-dichloro-benzyl ester] | 35 |

| SMILES | IC50 [nM] |
| --- | --- |
| CC(C)c1cc(Cl)ccc1OCC(=O)N1CCC2(CC1)CN(C(=O)C1CCc3[nH]nnc3C1)C2 (centres unmarked) [Example 1.27, 2-(4-chloro-2-isopropylphenoxy)-1-(2-(4,5,6,7-tetrahydro-1H-benzo[d][1,2,3]triazole-5-carbonyl)-2,7-diazaspiro[3.5]nonan-7-yl)ethanone] | 41 |
| O=C(OCc1cccc(Cl)c1)N1CCC2(CC1)CN(C(=O)c1ccc3[nH]nnc3c1)C2 [Example 1.03, 3-chlorobenzyl 2-(1H-benzo[d][1,2,3]triazole-5-carbonyl)-2,7-diazaspiro[3.5]nonane-7-carboxylate] | 201 |
| Cc1cc(OC(F)(F)F)ccc1COC(=O)N1CCC2(CC1)CN(C(=O)C1CCc3[nH]nnc3C1)C2 (centres unmarked) [Example 12.37, [2-methyl-4-(trifluoromethoxy)phenyl]methyl 2-(4,5,6,7-tetrahydro-1H-benzotriazole-5-carbonyl)-2,7-diazaspiro[3.5]nonane-7-carboxylate] | 1 |
| CS(=O)(=O)c1cc(COC(=O)N2CCC3(CC2)CN(C(=O)c2ccc4[nH]nnc4c2)C3)cc(C(F)(F)F)c1 [Example 12.25, 3-(methylsulfonyl)-5-(trifluoromethyl)benzyl 2-(1H-benzo[d][1,2,3]triazole-5-carbonyl)-2,7-diazaspiro[3.5]nonane-7-carboxylate] | 92 |
| O=C(NCc1c[nH]nn1)N1CC2(CCN(C(=O)OCc3ccc(OC(F)(F)F)cc3F)CC2)C1 [Example 14.01, [2-Fluoro-4-(trifluoromethoxy)phenyl]methyl 2-((1H-triazol-4-ylmethyl)carbamoyl)-2,7-diazaspiro[3.5]nonane-7-carboxylate] | 41.5 |
| O=C(c1ccc2[nH]nnc2c1)N1CC2(CCN(C(=O)N3Cc4ccc(Cl)cc4C3)CC2)C1 [Example 10, (2-(1H-Benzo[d][1,2,3]-triazole-5-carbonyl)-2,7-diazaspiro[3.5]nonan-7-yl)(5-chloroisoindolin-2-yl)methanone] | 3440 |
| O=C(NCc1cc(Cl)cc(Cl)c1)N1CCC2(CC1)CN(C(=O)c1ccc3[nH]nnc3c1)C2 [Example 9, 2-(1H-Benzo[d][1,2,3]triazole-5-carbonyl)-N-(3,5-dichlorobenzyl)-2,7-diazaspiro[3.5]nonane-7-carboxamide] | 1060 |
| O=C(OCc1cncc(Cl)c1)N1CCC2(CC1)CN(C(=O)c1ccc3[nH]nnc3c1)C2 [Example 12.08, (5-chloropyridin-3-yl)methyl 2-(1H-benzo[d][1,2,3]triazole-5-carbonyl)-2,7-diazaspiro[3.5]nonane-7-carboxylate] | 3830 |
| NS(=O)(=O)c1ccc(C(=O)N2CC3(CCN(C(=O)OCc4ccc(OC(F)(F)F)cc4)CC3)C2)cc1 [Example 1.22, 4-(trifluoromethoxy)benzyl 2-(4-sulfamoylbenzoyl)-2,7-diazaspiro[3.5]nonane-7-carboxylate] | 15 |
| O=C(OCc1ccc(OCC(F)(F)F)c(F)c1)N1CCC2(CC1)CN(C(=O)C1CCc3nn[nH]c3C1)C2 (centres unmarked) [Example 12.40, 3-fluoro-4-(2,2,2-trifluoroethoxy)benzyl 2-(4,5,6,7-tetrahydro-1H-benzo[d][1,2,3]triazole-6-carbonyl)-2,7-diazaspiro[3.5]nonane-7-carboxylate] | 2.5 |
| O=C(NC1CC2(C1)CN(C(=O)OCc1cc(Cl)cc(Cl)c1)C2)c1ccc2[nH]c(=O)oc2c1 [Example 5.2, 6-[(2-oxo-2,3-dihydro-benzooxazole-6-carbonyl)-amino]-2-aza-spiro[3.3]heptane-2-carboxylic acid 3,5-dichloro-benzyl ester] | 26.5 |
| CC(C)c1cc(Cl)ccc1OCC(=O)N1CCC2(CC1)CN(C(=O)c1ccc3[nH]nnc3c1)C2 [Example 1.26, 1-(2-(1H-benzo[d][1,2,3]triazole-5-carbonyl)-2,7-diazaspiro[3.5]nonan-7-yl)-2-(4-chloro-2-isopropylphenoxy)ethanone] | 8 |
| O=C(OCc1cc(Cl)cc(Cl)c1)N1CCC2(CC1)CN(C(=O)c1ccc3[nH]c(=O)oc3c1)C2 [Example 5, 3,5-Dichlorobenzyl 2-(2-oxo-2,3-dihydrobenzo[d]oxazole-6-carbonyl)-2,7-diazaspiro[3.5]nonane-7-carboxylate] | 7 |
| O=C(NC1CC2(C1)CN(C(=O)OCc1cc(Cl)cc(Cl)c1)C2)c1ccc2[nH]nnc2c1 [Example 1.13, 6-[(1H-benzotriazole-5-carbonyl)-amino]-2-aza-spiro[3.3]heptane-2-carboxylic acid 3,5-dichloro-benzyl ester] | 5430 |
| O=C(OCc1ccc(C(F)(F)F)cc1F)N1CCC2(CC1)CN(C(=O)C1CCc3[nH]nnc3C1)C2 (centres unmarked) [Example 12.36, [2-fluoro-4-(trifluoromethyl)phenyl]methyl 2-(4,5,6,7-tetrahydro-1H-benzotriazole-5-carbonyl)-2,7-diazaspiro[3.5]nonane-7-carboxylate] | 1 |
| O=C(NC1CC2(C1)CN(S(=O)(=O)c1ccc3[nH]c(=O)oc3c1)C2)OCc1cc(Cl)cc(Cl)c1 [Example 3.5, [2-(2-oxo-2,3-dihydro-benzooxazole-6-sulfonyl)-2-aza-spiro[3.3]hept-6-yl]-carbamic acid 3,5-dichloro-benzyl ester] | 20 |
